Test results reported in US12297190B2, “Modulators of STING (stimulator of interferon genes)” (PFIZER INC., priority 2019, dated 2025).

target: R232-STING (Homo sapiens, UniProt Q86WV6, H232R); test: biochemical
Sequence (Q86WV6 155-341 H232R): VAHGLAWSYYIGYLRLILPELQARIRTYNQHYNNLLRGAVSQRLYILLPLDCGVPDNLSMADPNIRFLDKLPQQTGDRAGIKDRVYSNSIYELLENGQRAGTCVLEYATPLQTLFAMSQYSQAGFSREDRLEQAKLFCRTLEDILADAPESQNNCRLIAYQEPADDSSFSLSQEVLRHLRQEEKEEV

Row | Structure (SMILES) | Ki
1 | CCn1nc(C)cc1-c1nnc(-c2cc(C(N)=O)cc3c2cnn3[C@H]2C[C@H](NC)C2)[nH]1 [ZZZ066, 4-[5-(1-ethyl-3-methyl-1H-pyrazol-5-yl)-4H-1,2,4-triazol-3-yl]-1-[(1r,3r)-3-(methylamino)cyclobutyl]-1H-indazole-6-carboxamide] | > 990 nM
2 | CCn1nc(C)cc1-c1n[nH]c(-c2cc(C(N)=O)cc3c2cnn3CCN2CCC23CC3)n1 [ZZZ093, 1-[2-(4-azaspiro[2.3]hexan-4-yl)ethyl]-4-[3-(1-ethyl-3-methyl-1H-pyrazol-5-yl)-1H-1,2,4-triazol-5-yl]-1H-indazole-6-carboxamide] | > 990 nM
3 | CCn1nc(C)cc1-c1n[nH]c(-c2cc(C(N)=O)cc3c2cnn3CCN2CCO[C@H](C)C2)n1 [ZZZ098, 4-[3-(1-ethyl-3-methyl-1H-pyrazol-5-yl)-1H-1,2,4-triazol-5-yl]-1-{2-[(2R)-2-methylmorpholin-4-yl]ethyl}-1H-indazole-6-carboxamide] | 541 nM
4 | CCn1nc(C)cc1-c1nnc(-c2cc(C(N)=O)cc3c2cnn3C[C@@H](C)N(C)C)[nH]1 [ZZZ015, 1-[(2R)-2-(dimethylamino)propyl]-4-[5-(1-ethyl-3-methyl-1H-pyrazol-5-yl)-4H-1,2,4-triazol-3-yl]-1H-indazole-6-carboxamide] | > 990 nM
5 | CCn1nc(C)cc1-c1n[nH]c(-c2cc(C(N)=O)cc3c2cnn3CCN2C3COCC2C3)n1 [ZZZ090, 4-[3-(1-ethyl-3-methyl-1H-pyrazol-5-yl)-1H-1,2,4-triazol-5-yl]-1-[2-(3-oxa-6-azabicyclo[3.1.1]heptan-6-yl)ethyl]-1H-indazole-6-carboxamide] | > 990 nM
6 | CCn1nc(C)cc1-c1nnc(-c2cc(C(N)=O)cc3c2cnn3C[C@H]2CCCN2C)[nH]1 [ZZZ027, 4-[5-(1-ethyl-3-methyl-1H-pyrazol-5-yl)-4H-1,2,4-triazol-3-yl]-1-{[(2R)-1-methylpyrrolidin-2-yl]methyl}-1H-indazole-6-carboxamide] | > 990 nM
7 | CCn1nc(C)cc1-c1nc(C(=O)O)c(-c2nc(C(N)=O)cc3c2cnn3C)o1 [ZZZ131, 5-(6-carbamoyl-1-methyl-1H-pyrazolo[4,3-c]pyridin-4-yl)-2-(1-ethyl-3-methyl-1H-pyrazol-5-yl)-1,3-oxazole-4-carboxylic acid] | > 990 nM
8 | CCN1CCCC[C@@H]1Cn1ncc2c(-c3nnc(-c4cc(C)nn4CC)[nH]3)cc(C(N)=O)cc21 (racemic) [ZZZ014, 4-[5-(1-ethyl-3-methyl-1H-pyrazol-5-yl)-4H-1,2,4-triazol-3-yl]-1-{[(2R)-1-ethylpiperidin-2-yl]methyl}-1H-indazole-6-carboxamide] | > 990 nM
9 | CCn1nc(C)c(F)c1-c1nc(CN)c(-c2nc(C(N)=O)cc3c2cnn3C)o1 [ZZZ045, 4-[4-(aminomethyl)-2-(1-ethyl-4-fluoro-3-methyl-1H-pyrazol-5-yl)-1,3-oxazol-5-yl]-1-methyl-1H-pyrazolo[4,3-c]pyridine-6-carboxamide] | > 900 nM
10 | Cc1cc(-c2n[nH]c(-c3nc(C(N)=O)cc4c3cnn4C)n2)n(CCCN)n1 [ZZZ132, 4-{3-[1-(3-aminopropyl)-3-methyl-1H-pyrazol-5-yl]-1H-1,2,4-triazol-5-yl}-1-methyl-1H-pyrazolo[4,3-c]pyridine-6-carboxamide] | > 990 nM
11 | CCn1nc(C(=O)O)cc1-c1nc(-c2nc(C(N)=O)cc3c2cnn3C)n(C)n1 [ZZZ083, 5-[5-(6-carbamoyl-1-methyl-1H-pyrazolo[4,3-c]pyridin-4-yl)-1-methyl-1H-1,2,4-triazol-3-yl]-1-ethyl-1H-pyrazole-3-carboxylic acid] | > 270 nM
12 | CCn1nc(C)cc1-c1nnc(-c2cc(C(N)=O)cc3c2cnn3[C@H]2CCCNC2)[nH]1 (racemic) [ZZZ069, 4-[5-(1-ethyl-3-methyl-1H-pyrazol-5-yl)-4H-1,2,4-triazol-3-yl]-1-[(3S)-piperidin-3-yl]-1H-indazole-6-carboxamide] | > 990 nM
13 | CCn1nc(C)cc1-c1nnc(-c2cc(C(N)=O)cc3c2cnn3[C@@H](C)CN(C)C)[nH]1 [ZZZ020, 1-[(2S)-1-(dimethylamino)propan-2-yl]-4-[5-(1-ethyl-3-methyl-1H-pyrazol-5-yl)-4H-1,2,4-triazol-3-yl]-1H-indazole-6-carboxamide] | > 990 nM
14 | CCn1nc(C)cc1-c1nc(-c2nc(C(N)=O)cc3c2cnn3C)n(CCN(C)C)n1 [ZZZ125, 4-{1-[2-(dimethylamino)ethyl]-3-(1-ethyl-3-methyl-1H-pyrazol-5-yl)-1H-1,2,4-triazol-5-yl}-1-methyl-1H-pyrazolo[4,3-c]pyridine-6-carboxamide] | 512 nM
15 | CCn1nc(C)cc1-c1n[nH]c(-c2cc(C(N)=O)cc3c2cnn3CCN2C[C@H](C)OC[C@H]2C)n1 (racemic) [ZZZ089, 1-{2-[(2S,5R)-2,5-dimethylmorpholin-4-yl]ethyl}-4-[3-(1-ethyl-3-methyl-1H-pyrazol-5-yl)-1H-1,2,4-triazol-5-yl]-1H-indazole-6-carboxamide] | 917 nM
16 | CCn1nc(C)cc1-c1nnc(-c2cc(C(N)=O)cc3[nH]ncc23)[nH]1 [ZZZ001, 4-[5-(1-ethyl-3-methyl-1H-pyrazol-5-yl)-4H-1,2,4-triazol-3-yl]-1H-indazole-6-carboxamide] | > 990 nM

Row | Structure (SMILES) | Ki
17 | CCn1nc(C)cc1-c1n[nH]c(-c2cc(C(N)=O)cc3c2cnn3CCN2CCO[C@@H](C)[C@H]2C)n1 [ZZZ088, 1-{2-[(2S,3R)-2,3-dimethylmorpholin-4-yl]ethyl}-4-[3-(1-ethyl-3-methyl-1H-pyrazol-5-yl)-1H-1,2,4-triazol-5-yl]-1H-indazole-6-carboxamide] | > 990 nM
18 | CCn1ccc2c(-c3nc(-c4cc(C)nn4CCC(=O)O)n[nH]3)nc(C(N)=O)cc21 [ZZZ062, 3-{5-[5-(6-carbamoyl-1-ethyl-1H-pyrrolo[3,2-c]pyridin-4-yl)-1H-1,2,4-triazol-3-yl]-3-methyl-1H-pyrazol-1-yl}propanoic acid] | 543 nM
19 | CCn1nc(C)cc1-c1nnc(-c2cc(C(N)=O)cc3c2cnn3C(C)CN2CCCC2)[nH]1 (centres unmarked) [ZZZ040, 4-[5-(1-ethyl-3-methyl-1H-pyrazol-5-yl)-4H-1,2,4-triazol-3-yl]-1-[1-(pyrrolidin-1-yl)propan-2-yl]-1H-indazole-6-carboxamide] | > 990 nM
20 | CCn1nc(C)cc1-c1nnc(-c2cc(C(N)=O)cc3c2cnn3CC2CC3(CCN(C)CC3)C2)[nH]1 [ZZZ033, 4-[5-(1-ethyl-3-methyl-1H-pyrazol-5-yl)-4H-1,2,4-triazol-3-yl]-1-[(7-methyl-7-azaspiro[3.5]nonan-2-yl)methyl]-1H-indazole-6-carboxamide] | 572 nM
21 | CCn1nc(CO)cc1-c1n[nH]c(-c2nc(C(N)=O)cc3[nH]ncc23)n1 [ZZZ046, 4-{3-[1-ethyl-3-(hydroxymethyl)-1H-pyrazol-5-yl]-1H-1,2,4-triazol-5-yl}-1H-pyrazolo[4,3-c]pyridine-6-carboxamide] | > 990 nM
22 | CCn1nc(C)cc1-c1nnc(-c2cc(C(N)=O)cc3c2cnn3CC23CCCC2CNC3)[nH]1 (centres unmarked) [ZZZ060, 4-[5-(1-ethyl-3-methyl-1H-pyrazol-5-yl)-4H-1,2,4-triazol-3-yl]-1-[(hexahydrocyclopenta[c]pyrrol-3a(1H)-yl)methyl]-1H-indazole-6-carboxamide] | 541 nM
23 | CCn1nc(C)cc1-c1n[nH]c(-c2cc(C(N)=O)cc3c2cnn3CCN2CC3CCC3C2)n1 (centres unmarked) [ZZZ110, 1-[2-(3-azabicyclo[3.2.0]heptan-3-yl)ethyl]-4-[3-(1-ethyl-3-methyl-1H-pyrazol-5-yl)-1H-1,2,4-triazol-5-yl]-1H-indazole-6-carboxamide] | 623 nM
24 | CCn1nc(C)cc1-c1nnc(-c2c(C(F)(F)F)c(C(N)=O)cc3c2cnn3C)[nH]1 [ZZZ044, 4-[5-(1-ethyl-3-methyl-1H-pyrazol-5-yl)-4H-1,2,4-triazol-3-yl]-1-methyl-5-(trifluoromethyl)-1H-indazole-6-carboxamide] | > 900 nM
25 | CCn1nc(C)cc1-c1nnc(-c2cc(C(N)=O)cc3c2cnn3CCN2CC(C)C2)[nH]1 [ZZZ036, 4-[5-(1-ethyl-3-methyl-1H-pyrazol-5-yl)-4H-1,2,4-triazol-3-yl]-1-[2-(3-methylazetidin-1-yl)ethyl]-1H-indazole-6-carboxamide] | > 990 nM
26 | CCn1nc(C)cc1-c1n[nH]c(-c2cc(C(N)=O)cc3c2cnn3CCN2CCC3CC3C2)n1 (centres unmarked) [ZZZ095, 1-[2-(3-azabicyclo[4.1.0]heptan-3-yl)ethyl]-4-[3-(1-ethyl-3-methyl-1H-pyrazol-5-yl)-1H-1,2,4-triazol-5-yl]-1H-indazole-6-carboxamide] | 773 nM
27 | CCn1nc(C)c(O)c1-c1nc(-c2nc(C(N)=O)cc3[nH]ncc23)n(C)n1 [ZZZ084, 4-[3-(1-ethyl-4-hydroxy-3-methyl-1H-pyrazol-5-yl)-1-methyl-1H-1,2,4-triazol-5-yl]-1H-pyrazolo[4,3-c] pyridine-6-carboxamide] | > 90.1 nM
28 | CCn1nc(C)cc1-c1nnc(-c2cc(C(N)=O)cc3c2cnn3C[C@@H](C)C2CCNCC2)[nH]1 [ZZZ076, 4-[5-(1-ethyl-3-methyl-1H-pyrazol-5-yl)-4H-1,2,4-triazol-3-yl]-1-[(2S)-2-(piperidin-4-yl)propyl]-1H-indazole-6-carboxamide] | 976 nM
29 | CCn1nc(C)c(F)c1-c1nnc(-c2cc(C(N)=O)cn3c(CN)ncc23)[nH]1 [ZZZ086, 3-(aminomethyl)-8-[5-(1-ethyl-4-fluoro-3-methyl-1H-pyrazol-5-yl)-4H-1,2,4-triazol-3-yl]imidazo[1,5-c]pyridine-6-carboxamide] | > 990 nM
30 | CCn1nc(C)cc1-c1n[nH]c(-c2cc(C(N)=O)cc3c2cnn3CCN2CCO[C@@H](C3CC3)C2)n1 (racemic) [ZZZ117, 1-{2-[(2S)-2-cyclopropylmorpholin-4-yl]ethyl}-4-[3-(1-ethyl-3-methyl-1H-pyrazol-5-yl)-1H-1,2,4-triazol-5-yl]-1H-indazole-6-carboxamide] | 848 nM
31 | CCn1nc(C)cc1-c1nnc(-c2cc(C(N)=O)cc3c2cnn3Cc2noc3c2CNCC3)[nH]1 [ZZZ068, 4-[5-(1-ethyl-3-methyl-1H-pyrazol-5-yl)-4H-1,2,4-triazol-3-yl]-1-[(4,5,6,7-tetrahydro[1,2]oxazolo[4,5-c]pyridin-3-yl)methyl]-1H-indazole-6-carboxamide] | > 990 nM
32 | CCn1nc(CO)cc1-c1nnc(-c2cc(C(N)=O)cc3c2cnn3C)[nH]1 [ZZZ050, 4-{5-[1-ethyl-3-(hydroxymethyl)-1H-pyrazol-5-yl]-4H-1,2,4-triazol-3-yl}-1-methyl-1H-indazole-6-carboxamide] | > 990 nM
